Results taken from patent US10414811B2, “Protease-resistant lipidated GLP-1 analogs” (MEDIMMUNE LIMITED, priority 2015, dated 2019).
Read-outs that look alike come from different tables or passages of the source. Numbered stars: 1 amine (or outer) side, 2 acyl side, 3 side chain; on linkers, the order of the positions; unused ones are H or OH. Square brackets hold non-standard residues; d marks the D form. Side chains are listed from the residue outwards. Peptide text beside a SMILES is read from it. * marks the point of attachment. C18 diacid = O=C(O)CCCCCCCCCCCCCCCCC(=O)*; γGlu = O=C(O)[C@H](CCC(=O)[*:2])N[*:1]; Stearoyl = CCCCCCCCCCCCCCCCCC(=O)*; αMeF = C[C@](N)(Cc1ccccc1)C(=O)O; αMeK = C[C@](N)(CCCCN)C(=O)O; αMeS = C[C@](N)(CO)C(=O)O; AEEA = NCCOCCOCC(=O)O; Aib = CC(C)(N)C(=O)O

Legend:
Type in all cases: cell-based
GLP-1R (INS1e assay) = target: T1, GLP-1R (INS1e assay) (Rattus norvegicus, UniProt P32301); experiment: INS1e assay, cAMP activity at GLP-1R; conditions: mono-lipidated peptides
T1 construct: endogenous in cells; host or cells: INS-1E cells
T1 sequence (P32301 22-463): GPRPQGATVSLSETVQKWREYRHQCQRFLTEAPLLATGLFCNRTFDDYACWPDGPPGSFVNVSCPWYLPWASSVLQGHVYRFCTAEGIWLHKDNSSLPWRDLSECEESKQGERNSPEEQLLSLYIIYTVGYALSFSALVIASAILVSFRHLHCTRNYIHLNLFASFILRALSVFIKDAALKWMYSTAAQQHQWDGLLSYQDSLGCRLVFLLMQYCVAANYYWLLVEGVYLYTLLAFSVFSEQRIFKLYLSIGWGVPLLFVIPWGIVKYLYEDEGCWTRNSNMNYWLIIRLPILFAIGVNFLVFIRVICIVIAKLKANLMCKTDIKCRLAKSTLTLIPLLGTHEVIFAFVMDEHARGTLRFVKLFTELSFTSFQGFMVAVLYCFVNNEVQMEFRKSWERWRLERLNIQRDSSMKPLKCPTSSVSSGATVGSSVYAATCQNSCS
Description: cAMP levels are measured using a commercially available cAMP dynamic 2 HTRF kit (Cisbio, Cat #62AM4PEJ), following the two step protocol as per manufacturer's recommendations. In brief; anti-cAMP cryptate (donor fluorophore) and cAMP-d2 (acceptor fluorophore) are made up separately by diluting each 1/20 in conjugate & lysis buffer provided in the kit. 5 μL anti-cAMP cryptate is added to wells of the assay plate, and 5 μL cAMP-d2 is added to wells except non-specific binding (NSB) wells, to which conjugate and lysis buffer are added. […] EC50 values of the synthetic peptides determined in cAMP assays are then determined.

[1] = target: T2, human glucagon receptor (GCGR) (Homo sapiens, UniProt P47871); experiment: cAMP assay, human GCGR cells; conditions: cAMP assay
T2 construct: expressed in transfected cells
In short: (§1)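 Peptide-stimulated cAMP measured by two-step HTRF after a 30 min room-temperature incubation with receptor-expressing cells (hGLP-1R, hGIPR at 1×10^5 cells/ml; hGCGR at 2×10^5 cells/ml). Duplicate dilutions; EC50 from 4-parameter logistic fit of % Delta F.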

[2] = target: T3, human glucose-dependent insulinotropic peptide receptor (GIPR) (Homo sapiens, UniProt P48546); experiment: cAMP assay, human GIPR cells; conditions: cAMP assay
T3 construct: expressed in transfected cells
T3 sequence (P48546 22-466): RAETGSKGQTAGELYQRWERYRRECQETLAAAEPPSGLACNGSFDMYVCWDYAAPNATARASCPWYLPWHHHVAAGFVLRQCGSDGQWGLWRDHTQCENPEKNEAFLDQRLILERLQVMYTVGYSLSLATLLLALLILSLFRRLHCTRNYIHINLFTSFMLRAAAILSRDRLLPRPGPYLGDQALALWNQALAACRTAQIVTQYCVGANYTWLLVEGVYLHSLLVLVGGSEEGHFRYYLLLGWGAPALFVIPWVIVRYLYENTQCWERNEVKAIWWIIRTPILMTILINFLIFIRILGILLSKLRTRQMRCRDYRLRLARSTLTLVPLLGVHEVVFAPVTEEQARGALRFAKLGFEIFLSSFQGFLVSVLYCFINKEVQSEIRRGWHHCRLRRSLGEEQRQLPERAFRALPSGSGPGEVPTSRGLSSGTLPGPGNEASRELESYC
In short: as §1

[3] = mean of n1 and n2, read-out: INS1e assay EC50 Mean pM GLP-1R
[4] = replicate n1, read-out: INS1e assay EC50 GLP-1R n1
[5] = replicate n2, read-out: INS1e assay EC50 GLP-1R n2
[6] = first determination (n1), read-out: Primary assay EC50 Gluc-R (n1)
[7] = second determination (n2), read-out: Primary assay EC50 Gluc-R (n2)
[8] = first determination (n1), read-out: Primary assay EC50 GIP-R (n1)
[9] = second determination (n2), read-out: Primary assay EC50 GIP-R (n2)

T2 sequence (P47871 26-477): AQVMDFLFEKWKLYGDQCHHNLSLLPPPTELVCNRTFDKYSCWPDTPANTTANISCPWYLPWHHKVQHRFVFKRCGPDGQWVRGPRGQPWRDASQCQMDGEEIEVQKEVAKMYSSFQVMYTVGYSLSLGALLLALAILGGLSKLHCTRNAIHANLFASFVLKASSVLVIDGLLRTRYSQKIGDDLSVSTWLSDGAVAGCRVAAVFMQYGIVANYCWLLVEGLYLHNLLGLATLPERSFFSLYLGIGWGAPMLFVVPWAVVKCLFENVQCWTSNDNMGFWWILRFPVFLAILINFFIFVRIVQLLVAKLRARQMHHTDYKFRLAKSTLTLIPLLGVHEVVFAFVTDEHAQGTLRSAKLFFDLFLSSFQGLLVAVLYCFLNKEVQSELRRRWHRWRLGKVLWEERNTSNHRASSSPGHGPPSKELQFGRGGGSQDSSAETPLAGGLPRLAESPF

SMILES	EC50 (GLP-1R (INS1e assay); [3])	EC50 (GLP-1R (INS1e assay); [4])	EC50 (GLP-1R (INS1e assay); [5])	EC50 [1, 6]	EC50 [1, 7]	EC50 [2, 8]	EC50 [2, 9]
CC[C@H](C)[C@H](NC(=O)[C@](C)(Cc1ccccc1)NC(=O)[C@H](CCC(=O)O)NC(=O)[C@H](CCCCNC(=O)COCCOCCNC(=O)COCCOCCNC(=O)CC[C@H](NC(=O)CCCCCCCCCCCCCCC(=O)O)C(=O)O)NC(=O)[C@H](C)NC(=O)[C@H](C)NC(=O)[C@H](CCC(=O)O)NC(=O)CNC(=O)[C@H](CCC(=O)O)NC(=O)[C@H](CC(C)C)NC(=O)[C@](C)(Cc1ccccc1)NC(=O)[C@H](CO)NC(=O)[C@](C)(CO)NC(=O)[C@@H](NC(=O)[C@H](CC(=O)O)NC(=O)[C@H](CO)NC(=O)[C@@H](NC(=O)[C@](C)(Cc1ccccc1)NC(=O)[C@H](CO)NC(=O)CNC(=O)[C@H](CCC(=O)O)NC(=O)C(C)(C)NC(=O)[C@@H](N)Cc1c[nH]cn1)[C@@H](C)O)C(C)C)C(=O)N[C@@H](C)C(=O)N[C@@](C)(Cc1ccccc1)C(=O)N[C@H](C(=O)N[C@H](C(=O)N[C@@](C)(CCCCN)C(=O)NCC(=O)NCC(N)=O)C(C)C)C(C)C [compound 109]	6330 pM	8350 pM	4320 pM	≥ 26 nM	≥ 25.6 nM	≥ 26 nM	≥ 25.6 nM
CC[C@H](C)[C@H](NC(=O)[C@](C)(Cc1ccccc1)NC(=O)[C@H](CCC(=O)O)NC(=O)[C@](C)(CCCCN)NC(=O)[C@H](CCCCNC(=O)COCCOCCNC(=O)COCCOCCNC(=O)CC[C@H](NC(=O)CCCCCCCCCCCCCCCCC(=O)O)C(=O)O)NC(=O)[C@H](C)NC(=O)[C@H](CCC(=O)O)NC(=O)CNC(=O)[C@H](CCC(=O)O)NC(=O)[C@H](CC(C)C)NC(=O)[C@](C)(Cc1ccccc1)NC(=O)[C@H](CO)NC(=O)[C@](C)(CO)NC(=O)[C@@H](NC(=O)[C@H](CC(=O)O)NC(=O)[C@H](CO)NC(=O)[C@@H](NC(=O)[C@](C)(Cc1ccccc1)NC(=O)[C@H](CO)NC(=O)CNC(=O)[C@H](CCC(=O)O)NC(=O)C(C)(C)NC(=O)[C@@H](N)Cc1c[nH]cn1)[C@@H](C)O)C(C)C)C(=O)N[C@@H](C)C(=O)N[C@@](C)(Cc1ccccc1)C(=O)N[C@H](C(=O)N[C@H](C(=O)N[C@@](C)(CCCCN)C(=O)NCC(=O)NCC(N)=O)C(C)C)C(C)C [compound 110] (H-H[Aib]EGS[αMeF]TSDV[αMeS]S[αMeF]LEGEAK([AEEA-AEEA-γGlu-C18 diacid])[αMeK]E[αMeF]IA[αMeF]VV[αMeK]GG-NH2; N-terminus assumed)	27400 pM	31600 pM	23100 pM	≥ 25 nM	≥ 25 nM	≥ 25 nM	≥ 25 nM
CC[C@H](C)[C@H](NC(=O)[C@](C)(Cc1ccccc1)NC(=O)[C@H](CCC(=O)O)NC(=O)[C@](C)(CCCCN)NC(=O)[C@H](C)NC(=O)[C@H](C)NC(=O)[C@H](CCC(=O)O)NC(=O)CNC(=O)[C@H](CCC(=O)O)NC(=O)[C@H](CC(C)C)NC(=O)[C@H](CCCCNC(=O)COCCOCCNC(=O)COCCOCCNC(=O)CC[C@H](NC(=O)CCCCCCCCCCCCCCCCC(=O)O)C(=O)O)NC(=O)[C@H](CO)NC(=O)[C@](C)(CO)NC(=O)[C@@H](NC(=O)[C@H](CC(=O)O)NC(=O)[C@H](CO)NC(=O)[C@@H](NC(=O)[C@](C)(Cc1ccccc1)NC(=O)[C@H](CO)NC(=O)CNC(=O)[C@H](CCC(=O)O)NC(=O)C(C)(C)NC(=O)[C@@H](N)Cc1c[nH]cn1)[C@@H](C)O)C(C)C)C(=O)N[C@@H](C)C(=O)N[C@@](C)(Cc1ccccc1)C(=O)N[C@H](C(=O)N[C@H](C(=O)N[C@@](C)(CCCCN)C(=O)NCC(=O)NCC(N)=O)C(C)C)C(C)C [compound 116]	1110 pM	1610 pM	610 pM	≥ 26 nM	≥ 25.6 nM	≥ 26 nM	≥ 25.6 nM

These reach a lower EC50 (GLP-1R (INS1e assay); [3]). Values come first.

EC50 (GLP-1R (INS1e assay); [3])	EC50 (GLP-1R (INS1e assay); [4])	EC50 (GLP-1R (INS1e assay); [5])	EC50 [1, 6]	EC50 [1, 7]	EC50 [2, 8]	EC50 [2, 9]	SMILES
1040 pM	823 pM	1260 pM	≥ 25 nM	≥ 24.9 nM	≥ 25 nM	≥ 24.9 nM	CC[C@H](C)[C@H](NC(=O)[C@](C)(Cc1ccccc1)NC(=O)[C@H](CCC(=O)O)NC(=O)[C@](C)(CCCCN)NC(=O)[C@H](C)NC(=O)[C@H](C)NC(=O)[C@H](CCC(=O)O)NC(=O)[C@H](CCCCNC(=O)COCCOCCNC(=O)COCCOCCNC(=O)CC[C@H](NC(=O)CCCCCCCCCCCCCCCCC(=O)O)C(=O)O)NC(=O)[C@H](CCC(=O)O)NC(=O)[C@H](CC(C)C)NC(=O)[C@](C)(Cc1ccccc1)NC(=O)[C@H](CO)NC(=O)[C@](C)(CO)NC(=O)[C@@H](NC(=O)[C@H](CC(=O)O)NC(=O)[C@H](CO)NC(=O)[C@@H](NC(=O)[C@](C)(Cc1ccccc1)NC(=O)[C@H](CO)NC(=O)CNC(=O)[C@H](CCC(=O)O)NC(=O)C(C)(C)NC(=O)[C@@H](N)Cc1c[nH]cn1)[C@@H](C)O)C(C)C)C(=O)N[C@@H](C)C(=O)N[C@@](C)(Cc1ccccc1)C(=O)N[C@H](C(=O)N[C@H](C(=O)N[C@@](C)(CCCCN)C(=O)NCC(=O)NCC(N)=O)C(C)C)C(C)C [compound 113] (H-H[Aib]EGS[αMeF]TSDV[αMeS]S[αMeF]LEK([AEEA-AEEA-γGlu-C18 diacid])EAA[αMeK]E[αMeF]IA[αMeF]VV[αMeK]GG-NH2; N-terminus assumed)
7 pM	6.25 pM	8.15 pM	≥ 26 nM	≥ 26 nM	≥ 26 nM	≥ 26 nM	CCCCCCCCCCCCCCCCCC(=O)NCCOCCOCC(=O)NCCOCCOCC(=O)NCCOCCOCC(=O)NCCCC[C@H](NC(=O)[C@H](C)NC(=O)[C@H](C)NC(=O)[C@H](CCC(=O)O)NC(=O)CNC(=O)[C@H](CCC(=O)O)NC(=O)[C@H](CC(C)C)NC(=O)[C@H](Cc1ccc(O)cc1)NC(=O)[C@H](CO)NC(=O)[C@](C)(CO)NC(=O)[C@@H](NC(=O)[C@H](CC(=O)O)NC(=O)[C@H](CO)NC(=O)[C@@H](NC(=O)[C@](C)(Cc1ccccc1)NC(=O)[C@H](CO)NC(=O)CNC(=O)[C@H](CCC(=O)O)NC(=O)C(C)(C)NC(=O)[C@@H](N)Cc1c[nH]cn1)[C@@H](C)O)C(C)C)C(=O)N[C@@H](CCC(=O)O)C(=O)N[C@@](C)(Cc1ccccc1)C(=O)N[C@H](C(=O)N[C@@H](C)C(=O)N[C@@](C)(Cc1ccccc1)C(=O)N[C@H](C(=O)N[C@H](C(=O)N[C@@](C)(CCCCN)C(=O)NCC(=O)NCC(N)=O)C(C)C)C(C)C)[C@@H](C)CC [compound 53] (H-H[Aib]EGS[αMeF]TSDV[αMeS]SYLEGEAAK([AEEA-AEEA-AEEA-Stearoyl])E[αMeF]IA[αMeF]VV[αMeK]GG-NH2)
6 pM	2.67 pM	8.37 pM	≥ 26 nM	≥ 26 nM	≥ 26 nM	≥ 26 nM	CCCCCCCCCCCCCCCCCC(=O)NCCOCCOCC(=O)NCCOCCOCC(=O)NCCOCCOCC(=O)NCCCC[C@H](NC(=O)[C@H](C)NC(=O)[C@H](C)NC(=O)[C@H](CCC(=O)O)NC(=O)CNC(=O)[C@H](CCC(=O)O)NC(=O)[C@H](CC(C)C)NC(=O)[C@](C)(Cc1ccccc1)NC(=O)[C@H](CO)NC(=O)[C@](C)(CO)NC(=O)[C@@H](NC(=O)[C@H](CC(=O)O)NC(=O)[C@H](CO)NC(=O)[C@@H](NC(=O)[C@](C)(Cc1ccccc1)NC(=O)[C@H](CO)NC(=O)CNC(=O)[C@H](CCC(=O)O)NC(=O)C(C)(C)NC(=O)[C@@H](N)Cc1c[nH]cn1)[C@@H](C)O)C(C)C)C(=O)N[C@@H](CCC(=O)O)C(=O)N[C@@H](Cc1ccccc1)C(=O)N[C@H](C(=O)N[C@@H](C)C(=O)N[C@@](C)(Cc1ccccc1)C(=O)N[C@H](C(=O)N[C@H](C(=O)N[C@@](C)(CCCCN)C(=O)NCC(=O)NCC(N)=O)C(C)C)C(C)C)[C@@H](C)CC [compound 54]
